# Data taken from patent US6426231B1 (priority 1998, dated 2002).
# Several values for one entry are separate records, joined by “and”; a condition that tells them apart may be missing. Equal values may be shown once. Entries after “also recorded” stand apart in the source; their conditions may differ. Read-outs that look alike come from different tables or passages of the source.
# Legend:
# αHL•βCD = αHL•βCD (Staphylococcus aureus, UniProt P09616); test: biochemical; format: biochemical; conditions: for K^Af (formation constant of αHL•βCD•A) / ΔG of analyte binding to αHL•βCD: pH 3.0
# Chain of αHL•βCD (P09616 27-319 limits assumed): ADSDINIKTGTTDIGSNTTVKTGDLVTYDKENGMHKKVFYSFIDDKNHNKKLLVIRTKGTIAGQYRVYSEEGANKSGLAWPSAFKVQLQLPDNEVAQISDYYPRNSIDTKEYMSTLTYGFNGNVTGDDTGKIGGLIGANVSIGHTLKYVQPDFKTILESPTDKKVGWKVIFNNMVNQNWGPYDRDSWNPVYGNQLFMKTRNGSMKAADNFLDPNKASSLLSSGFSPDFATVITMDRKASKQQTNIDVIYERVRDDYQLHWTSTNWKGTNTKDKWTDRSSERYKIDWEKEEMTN
# [1] = cited from earlier work
# αHL pore = αHL pore (Staphylococcus aureus, UniProt P09616); format: biochemical
# Chain of αHL pore (P09616 27-319 limits assumed): as above
# [2] = format: binding; conditions: pH 3.0
# WT-αHL pore = WT-αHL pore (Staphylococcus aureus, UniProt P09616); format: biochemical; conditions: pH 7.5
# Chain of WT-αHL pore (P09616 27-319 limits assumed): as above
compound,measurement,setting,value
Cl.NC12CC3CC(CC(C3)C1)C2 [1-adamantanamine hydrochloride],(IP·C·A IP·C)/(IP·C·A-IP),αHL•βCD,0.294 ± 0.005
same,Kd,αHL•βCD,109 ± 4.95 µM
same,Residence time (τ) of the analyte on αHL·βCD,αHL•βCD,1.42 ± 0.14 ms
NC(=O)C12CC3CC(CC(C3)C1)C2 [1-adamantanecarboxamide],(IP·C·A IP·C)/(IP·C·A-IP),αHL•βCD,0.333 ± 0.005
same,Kd,αHL•βCD,34.2 ± 2.77 µM
same,Residence time (τ) of the analyte on αHL·βCD,αHL•βCD,3.99 ± 0.18 ms
O=C(O)C12CC3CC(CC(C3)C1)C2 [1-adamantanecarboxylic acid],Literature ΔG for binding to βCD,[1]; pH 4.05,-7.5 kcal/mol
same,Literature ΔG for binding to βCD,[1]; pH 7.2,-6.4 kcal/mol
same,binding to the pore without adapter/carrier,αHL pore,does not bind to the pore
same,K^Af (formation constant of analyte with βCD in solution),[2],5.76±1.50×10^4 M^−1
same,ΔG of analyte binding to βCD in solution,[2],-6.5 kcal/mol
same,(IP·C·A IP·C)/(IP·C·A-IP),αHL•βCD,0.346 ± 0.005
same,Kd,αHL•βCD,7.53 ± 1.16 µM
same,Residence time (τ) of the analyte on αHL·βCD,αHL•βCD,14.0 ± 0.79 ms
same,conductance of the partially blocked channel (αHL•βCD) with guest,αHL•βCD,112.2 pS
same,residence time (τ) of guest,αHL•βCD,14.0 ms
same,"single channel current level, additional block of αHL•βCD",αHL•βCD,−4.7 pA
same,K^Af (formation constant of αHL•βCD•A),αHL•βCD,1.35±0.19×10^5 M^−1
same,ΔG of analyte binding to αHL•βCD,αHL•βCD,-7.0 kcal/mol
OCCC12CC3CC(CC(C3)C1)C2 [1-adamantaneethanol],(IP·C·A IP·C)/(IP·C·A-IP),αHL•βCD,0.348 ± 0.003
same,Kd,αHL•βCD,3.33 ± 1.07 µM
same,Residence time (τ) of the analyte on αHL·βCD,αHL•βCD,30.6 ± 2.42 ms
Cl.NC1C2CC3CC(C2)CC1C3 (stereo not shown) [2-adamantanamine hydrochloride],effect on the completely open channel,αHL pore; hydrochloride,does not affect; also recorded: no effect
same,K^Af (formation constant of analyte with βCD in solution),[2],9.84±2.19×10^3 M^−1
same,ΔG of analyte binding to βCD in solution,[2],-5.5 kcal/mol
same,(IP·C·A IP·C)/(IP·C·A-IP),αHL•βCD,0.286 ± 0.004
same,Kd,αHL•βCD,98.6 ± 14.3 µM
same,Residence time (τ) of the analyte on αHL·βCD,αHL•βCD,2.54 ± 0.21 ms
same,conductance of the partially blocked channel (αHL•βCD) with guest,αHL•βCD,126.5 pS
same,residence time (τ) of guest,αHL•βCD,2.54 ms
same,residence time of βCD•A on αHL compared with βCD,αHL•βCD,greater than βCD itself
same,"single channel current level, additional block of αHL•βCD",αHL•βCD,−5.7 pA
same,K^Af (formation constant of αHL•βCD•A),αHL•βCD,1.03±0.15×10^4 M^−1
same,ΔG of analyte binding to αHL•βCD,αHL•βCD,-5.5 kcal/mol
"CC(=O)NC12CC3CC(CC(C3)C1)C2 [N-(1-adamantyl)acetamide, N-(1-adamantyl)-acetamide]",(IP·C·A IP·C)/(IP·C·A-IP),αHL•βCD,0.348 ± 0.003
same,Kd,αHL•βCD,14 ± 2.24 µM
same,Residence time (τ) of the analyte on αHL·βCD,αHL•βCD,7.32 ± 2.13 ms
heptakis-6-sulfato-β-cyclodextrin [s7βCD],PK+/PNa+,WT-αHL pore,0.92
same,dwell time (τ) of adapter on WT-αHL pore,WT-αHL pore,846 ± 37 ms
same,g (conductance),WT-αHL pore,53 pS and 53 ± 6 pS
α-cyclodextrin,block of the ionic current,αHL pore,reversible partial blocks
β-cyclodextrin [βCD],block of the ionic current,αHL pore,reversible partial blocks
same,partial block of the channel,αHL pore,64%
same,single channel current level with βCD bound,αHL pore,−11.5 pA
same,K^Cf (equilibrium formation constant αHL•βCD),αHL pore; pH 3,475 M⁻¹
same,conductance of αHL in the presence of βCD,αHL pore; pH 3,272 pS
same,k^Coff,αHL pore; pH 3,115 s⁻¹
same,k^Con,αHL pore; pH 3,54600 M⁻¹ s⁻¹
same,dwell time (τ) of adapter on WT-αHL pore,WT-αHL pore,0.84 ms
same,g (conductance),WT-αHL pore,240 pS and 240 ± 5 pS
γ-cyclodextrin [γCD],block of the ionic current,αHL pore,reversible partial blocks
same,g (conductance),WT-αHL pore,328 pS and 328 ± 4 pS
